We go through one compound from patent US20210022305A1, “A HUMULUS PLANT VARIANT AND EXTRACTS THEREOF” (BOMI LLC, priority 2018, published 2021).

This assay relates to CB2. Nature of the assay: CBD bioactivity test (monoclonal antibody test based on CB2 affinity). It counts as binding. To be noted: CBD samples isolated from ImmunAG.

Where “and” joins values, the source holds several entries; their conditions need not be identical. Equal entries are not always repeated.

Method: All chemicals and solutions were obtained from Sigma-Aldrich (St. Louis, Mo.). All cell cultures were obtained from Creative Bioarray, Shirley, N.Y. CBD bioactivity was measured using practices described in Cushing et al., “Measuring the Bioactivity of Phytocannabinoid Cannabidiol from Cannabis Sources, and a Novel Non-Cannabis Source,” Journal of Medical Phyto.
CBD Samples and Bioactivity Testing. […] Following isolation, bioactivity was measured using procedures outlined in Cushing et al., “Measuring the Bioactivity of Phytocannabinoid Cannabidiol from Cannabis Sources, and a Novel Non-Cannabis Source,” Journal of Medical Phyto.
The bioactivity testing procedure used in this experiment, as described in Cushing et al., “Measuring the Bioactivity of Phytocannabinoid Cannabidiol from Cannabis Sources, and a Novel Non-Cannabis Source,” Journal of Medical Phyto. Research 10 (2018), which is hereby incorporated by reference in its entirety, consisted of a monoclonal antibody test whose validity was based on the CB2 affinity of CBD samples.

In the case of `C=C(C)C1CCC(C)=CC1c1c(O)cc(CCCCC)cc1O` (stereo not drawn) [CBD, 2-(6-isopropenyl-3-methyl-2-cyclohexen-l-yl)-5-pentyl-1,3-benzenediol], the Bioactivity is 0.80 and 0.90 and 0.95.
